Common to all, as to assay: Fluorescence Assay
Details in all cases: pH 7.5; 25 °C

Experiment [1] concerns the target T1, Ephrin type-A receptor 3 (Homo sapiens, UniProt P29320).
T1 sequence (P29320 whole entry): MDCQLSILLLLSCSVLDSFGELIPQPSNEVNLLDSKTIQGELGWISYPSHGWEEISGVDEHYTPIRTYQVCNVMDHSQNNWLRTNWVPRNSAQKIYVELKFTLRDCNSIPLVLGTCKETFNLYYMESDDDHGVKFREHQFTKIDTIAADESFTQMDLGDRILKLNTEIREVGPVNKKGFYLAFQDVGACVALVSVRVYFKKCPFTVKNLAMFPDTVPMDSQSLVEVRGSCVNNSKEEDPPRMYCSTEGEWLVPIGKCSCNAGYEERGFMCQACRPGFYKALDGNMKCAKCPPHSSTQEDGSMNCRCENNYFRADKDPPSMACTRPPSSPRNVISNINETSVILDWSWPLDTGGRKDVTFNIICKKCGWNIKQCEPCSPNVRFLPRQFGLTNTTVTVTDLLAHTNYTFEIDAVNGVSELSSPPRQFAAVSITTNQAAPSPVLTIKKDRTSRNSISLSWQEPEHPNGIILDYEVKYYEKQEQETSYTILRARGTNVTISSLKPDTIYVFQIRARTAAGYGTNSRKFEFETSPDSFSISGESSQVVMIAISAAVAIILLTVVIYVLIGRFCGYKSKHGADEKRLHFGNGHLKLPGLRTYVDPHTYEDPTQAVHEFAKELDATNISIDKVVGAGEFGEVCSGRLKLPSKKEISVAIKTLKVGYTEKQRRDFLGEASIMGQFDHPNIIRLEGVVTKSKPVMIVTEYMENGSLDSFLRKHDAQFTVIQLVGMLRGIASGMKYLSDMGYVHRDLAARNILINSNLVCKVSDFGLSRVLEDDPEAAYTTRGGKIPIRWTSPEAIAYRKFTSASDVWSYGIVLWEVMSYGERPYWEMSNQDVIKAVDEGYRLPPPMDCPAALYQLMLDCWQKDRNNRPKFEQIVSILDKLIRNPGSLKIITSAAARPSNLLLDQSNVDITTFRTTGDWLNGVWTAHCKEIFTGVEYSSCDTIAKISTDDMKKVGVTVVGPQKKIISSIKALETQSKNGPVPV
The source says: (§1) Fluorescence assay used for determination of catch and release efficiency.

Experiment [2] addresses T2, Interleukin-1 receptor-associated kinase 4 (Homo sapiens, UniProt Q9NWZ3).
T2 sequence (Q9NWZ3 whole entry): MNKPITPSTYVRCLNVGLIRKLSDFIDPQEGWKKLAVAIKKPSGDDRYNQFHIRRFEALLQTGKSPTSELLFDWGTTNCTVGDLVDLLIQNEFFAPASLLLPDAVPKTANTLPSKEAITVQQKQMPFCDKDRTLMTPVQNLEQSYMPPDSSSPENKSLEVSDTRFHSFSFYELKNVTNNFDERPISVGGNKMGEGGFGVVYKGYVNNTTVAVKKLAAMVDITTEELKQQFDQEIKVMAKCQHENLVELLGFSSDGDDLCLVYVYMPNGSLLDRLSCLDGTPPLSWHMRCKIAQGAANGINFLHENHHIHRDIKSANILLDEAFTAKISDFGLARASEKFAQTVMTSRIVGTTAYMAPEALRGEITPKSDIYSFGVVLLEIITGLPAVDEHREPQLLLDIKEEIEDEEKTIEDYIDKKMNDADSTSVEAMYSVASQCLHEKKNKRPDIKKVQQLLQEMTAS
Source text: as §1

Experiment [3] has as its target T3, Mitogen-activated protein kinase kinase kinase 5 (Homo sapiens, UniProt Q99683).
T3 sequence (Q99683 whole entry): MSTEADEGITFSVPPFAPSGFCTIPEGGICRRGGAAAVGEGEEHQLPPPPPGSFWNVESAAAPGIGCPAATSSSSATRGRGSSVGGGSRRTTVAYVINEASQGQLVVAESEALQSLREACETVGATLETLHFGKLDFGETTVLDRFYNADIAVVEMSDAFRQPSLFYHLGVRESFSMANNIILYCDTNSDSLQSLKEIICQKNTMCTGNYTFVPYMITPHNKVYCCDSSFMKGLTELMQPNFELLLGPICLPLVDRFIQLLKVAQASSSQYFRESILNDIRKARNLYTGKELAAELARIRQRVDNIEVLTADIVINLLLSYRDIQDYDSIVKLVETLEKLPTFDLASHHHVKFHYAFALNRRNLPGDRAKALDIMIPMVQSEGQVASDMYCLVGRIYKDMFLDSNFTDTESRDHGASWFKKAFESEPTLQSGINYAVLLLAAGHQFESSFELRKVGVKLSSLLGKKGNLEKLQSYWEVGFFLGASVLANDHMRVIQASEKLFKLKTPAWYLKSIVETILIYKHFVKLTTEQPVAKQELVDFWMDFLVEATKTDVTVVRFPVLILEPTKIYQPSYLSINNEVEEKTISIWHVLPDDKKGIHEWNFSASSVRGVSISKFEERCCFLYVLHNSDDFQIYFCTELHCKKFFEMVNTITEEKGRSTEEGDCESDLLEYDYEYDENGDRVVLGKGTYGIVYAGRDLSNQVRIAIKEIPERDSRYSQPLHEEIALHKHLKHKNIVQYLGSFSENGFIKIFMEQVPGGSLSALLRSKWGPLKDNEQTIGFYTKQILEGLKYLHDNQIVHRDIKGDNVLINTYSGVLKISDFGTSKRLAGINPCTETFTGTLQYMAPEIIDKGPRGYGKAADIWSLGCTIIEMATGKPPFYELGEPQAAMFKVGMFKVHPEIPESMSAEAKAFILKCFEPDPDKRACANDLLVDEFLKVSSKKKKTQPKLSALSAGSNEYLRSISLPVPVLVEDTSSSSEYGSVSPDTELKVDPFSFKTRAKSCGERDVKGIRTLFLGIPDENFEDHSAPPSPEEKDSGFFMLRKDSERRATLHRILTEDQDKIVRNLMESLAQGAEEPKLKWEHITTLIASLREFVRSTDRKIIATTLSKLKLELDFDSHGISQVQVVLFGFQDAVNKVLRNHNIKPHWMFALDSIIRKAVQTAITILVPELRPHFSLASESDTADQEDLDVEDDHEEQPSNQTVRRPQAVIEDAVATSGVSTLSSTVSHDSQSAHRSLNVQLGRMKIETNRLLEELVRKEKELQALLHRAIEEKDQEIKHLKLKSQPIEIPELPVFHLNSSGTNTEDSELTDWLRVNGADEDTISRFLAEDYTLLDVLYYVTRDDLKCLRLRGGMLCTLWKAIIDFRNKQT
Source text: as §1

For experiment [4], the target named is Proto-oncogene tyrosine-protein kinase Src (Homo sapiens, UniProt P12931).
Source text: as §1

Experiment [5] deals with Serine/threonine-protein kinase 10 (Homo sapiens, UniProt O94804).
Source text: as §1

Experiment [6] addresses Serine/threonine-protein kinase PAK 4 (Homo sapiens, UniProt O96013).
Source text: as §1

In experiment [7] the target is Serine/threonine-protein kinase PAK 5 (Homo sapiens, UniProt Q9P286).
Source text: as §1

Experiment [8] deals with Tyrosine-protein kinase ABL1 (Homo sapiens, UniProt P00519).
Source text: as §1

For experiment [9], the target named is Tyrosine-protein kinase CSK (Homo sapiens, UniProt P41240).
Source text: as §1

Experiment [10] deals with Tyrosine-protein kinase HCK (Homo sapiens, UniProt P08631).
Source text: as §1

For experiment [11], the target named is Tyrosine-protein kinase Lck (Homo sapiens, UniProt P06239).
Source text: as §1

Some results are limits rather than exact numbers.

Serine/threonine-protein kinase 10, sequence (O94804 whole entry): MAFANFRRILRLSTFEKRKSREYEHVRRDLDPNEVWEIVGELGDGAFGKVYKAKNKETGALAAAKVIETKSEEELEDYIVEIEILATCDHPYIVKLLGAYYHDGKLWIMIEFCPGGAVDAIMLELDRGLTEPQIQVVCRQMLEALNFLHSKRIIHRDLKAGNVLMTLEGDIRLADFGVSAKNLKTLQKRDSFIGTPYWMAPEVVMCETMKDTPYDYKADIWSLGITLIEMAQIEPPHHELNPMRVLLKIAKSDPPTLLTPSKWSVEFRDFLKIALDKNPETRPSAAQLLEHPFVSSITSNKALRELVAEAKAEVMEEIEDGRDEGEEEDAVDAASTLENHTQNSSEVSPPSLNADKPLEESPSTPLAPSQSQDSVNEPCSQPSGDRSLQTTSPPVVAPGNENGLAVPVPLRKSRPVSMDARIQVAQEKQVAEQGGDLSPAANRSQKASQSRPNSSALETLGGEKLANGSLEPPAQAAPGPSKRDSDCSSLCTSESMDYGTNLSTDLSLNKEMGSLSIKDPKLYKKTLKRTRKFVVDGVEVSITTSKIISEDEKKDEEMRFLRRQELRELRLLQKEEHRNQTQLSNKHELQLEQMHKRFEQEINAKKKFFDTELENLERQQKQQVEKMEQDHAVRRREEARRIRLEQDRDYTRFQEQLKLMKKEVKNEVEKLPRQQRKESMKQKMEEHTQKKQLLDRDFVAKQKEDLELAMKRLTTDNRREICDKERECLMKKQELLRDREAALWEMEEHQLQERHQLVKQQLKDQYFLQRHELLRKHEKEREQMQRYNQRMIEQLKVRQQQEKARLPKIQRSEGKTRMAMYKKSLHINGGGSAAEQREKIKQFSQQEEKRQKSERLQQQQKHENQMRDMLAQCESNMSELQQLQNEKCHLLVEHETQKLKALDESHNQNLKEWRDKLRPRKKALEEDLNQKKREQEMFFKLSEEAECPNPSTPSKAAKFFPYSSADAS
Serine/threonine-protein kinase PAK 4, sequence (O96013 whole entry): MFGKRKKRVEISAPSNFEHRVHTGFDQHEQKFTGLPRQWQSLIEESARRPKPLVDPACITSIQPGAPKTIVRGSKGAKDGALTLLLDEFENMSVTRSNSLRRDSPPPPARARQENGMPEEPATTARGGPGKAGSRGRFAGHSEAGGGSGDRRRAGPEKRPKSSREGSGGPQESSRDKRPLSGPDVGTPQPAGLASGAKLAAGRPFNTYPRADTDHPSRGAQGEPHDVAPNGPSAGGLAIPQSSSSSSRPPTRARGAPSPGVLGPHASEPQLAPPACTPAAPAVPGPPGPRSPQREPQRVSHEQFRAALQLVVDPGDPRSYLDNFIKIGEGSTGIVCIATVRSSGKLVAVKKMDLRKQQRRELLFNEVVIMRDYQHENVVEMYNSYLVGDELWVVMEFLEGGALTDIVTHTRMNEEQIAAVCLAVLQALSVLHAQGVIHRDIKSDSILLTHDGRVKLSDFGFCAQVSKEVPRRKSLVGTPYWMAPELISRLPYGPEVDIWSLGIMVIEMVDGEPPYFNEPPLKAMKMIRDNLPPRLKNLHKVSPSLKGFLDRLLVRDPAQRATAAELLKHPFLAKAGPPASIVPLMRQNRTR
Tyrosine-protein kinase HCK, sequence (P08631 whole entry): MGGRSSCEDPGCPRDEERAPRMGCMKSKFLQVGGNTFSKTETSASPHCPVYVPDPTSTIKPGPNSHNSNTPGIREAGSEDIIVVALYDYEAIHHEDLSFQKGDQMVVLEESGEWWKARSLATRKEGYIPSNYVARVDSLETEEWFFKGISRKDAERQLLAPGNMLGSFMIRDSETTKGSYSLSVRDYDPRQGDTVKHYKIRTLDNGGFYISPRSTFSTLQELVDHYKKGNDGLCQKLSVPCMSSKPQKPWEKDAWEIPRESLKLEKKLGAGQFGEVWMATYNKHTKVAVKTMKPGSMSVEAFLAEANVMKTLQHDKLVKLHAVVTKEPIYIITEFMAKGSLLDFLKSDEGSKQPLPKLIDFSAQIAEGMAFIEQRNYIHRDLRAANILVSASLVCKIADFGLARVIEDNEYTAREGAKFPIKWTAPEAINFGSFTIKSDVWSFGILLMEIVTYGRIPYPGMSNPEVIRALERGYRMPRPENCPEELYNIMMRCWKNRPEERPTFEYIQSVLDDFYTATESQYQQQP
Proto-oncogene tyrosine-protein kinase Src, sequence (P12931 2-536 limits assumed): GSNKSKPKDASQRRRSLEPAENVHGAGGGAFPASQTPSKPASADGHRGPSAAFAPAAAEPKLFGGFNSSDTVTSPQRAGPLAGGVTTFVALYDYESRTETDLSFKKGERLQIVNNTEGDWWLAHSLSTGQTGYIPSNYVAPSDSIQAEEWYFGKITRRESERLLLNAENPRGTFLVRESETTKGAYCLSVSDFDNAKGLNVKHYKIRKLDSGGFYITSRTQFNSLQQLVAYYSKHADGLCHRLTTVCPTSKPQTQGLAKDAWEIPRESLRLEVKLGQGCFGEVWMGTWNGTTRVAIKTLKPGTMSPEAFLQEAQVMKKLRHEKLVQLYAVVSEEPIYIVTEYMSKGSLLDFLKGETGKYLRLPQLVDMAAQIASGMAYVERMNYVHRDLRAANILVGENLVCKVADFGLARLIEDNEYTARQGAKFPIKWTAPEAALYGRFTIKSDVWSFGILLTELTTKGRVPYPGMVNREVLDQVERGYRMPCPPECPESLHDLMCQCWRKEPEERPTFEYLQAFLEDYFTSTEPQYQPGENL
Tyrosine-protein kinase CSK, sequence (P41240 whole entry): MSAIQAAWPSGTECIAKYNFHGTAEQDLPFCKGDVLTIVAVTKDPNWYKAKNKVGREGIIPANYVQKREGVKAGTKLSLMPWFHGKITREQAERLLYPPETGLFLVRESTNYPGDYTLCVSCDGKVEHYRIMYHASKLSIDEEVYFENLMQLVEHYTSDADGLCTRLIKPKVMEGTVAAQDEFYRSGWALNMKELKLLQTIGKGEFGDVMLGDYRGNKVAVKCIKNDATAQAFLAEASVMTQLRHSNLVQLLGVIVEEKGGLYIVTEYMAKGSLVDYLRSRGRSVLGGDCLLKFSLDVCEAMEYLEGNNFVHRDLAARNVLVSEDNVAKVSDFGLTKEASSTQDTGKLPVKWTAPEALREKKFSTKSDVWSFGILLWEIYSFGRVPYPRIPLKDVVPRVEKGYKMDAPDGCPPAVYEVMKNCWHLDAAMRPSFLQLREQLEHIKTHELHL
Tyrosine-protein kinase ABL1, sequence (P00519 whole entry): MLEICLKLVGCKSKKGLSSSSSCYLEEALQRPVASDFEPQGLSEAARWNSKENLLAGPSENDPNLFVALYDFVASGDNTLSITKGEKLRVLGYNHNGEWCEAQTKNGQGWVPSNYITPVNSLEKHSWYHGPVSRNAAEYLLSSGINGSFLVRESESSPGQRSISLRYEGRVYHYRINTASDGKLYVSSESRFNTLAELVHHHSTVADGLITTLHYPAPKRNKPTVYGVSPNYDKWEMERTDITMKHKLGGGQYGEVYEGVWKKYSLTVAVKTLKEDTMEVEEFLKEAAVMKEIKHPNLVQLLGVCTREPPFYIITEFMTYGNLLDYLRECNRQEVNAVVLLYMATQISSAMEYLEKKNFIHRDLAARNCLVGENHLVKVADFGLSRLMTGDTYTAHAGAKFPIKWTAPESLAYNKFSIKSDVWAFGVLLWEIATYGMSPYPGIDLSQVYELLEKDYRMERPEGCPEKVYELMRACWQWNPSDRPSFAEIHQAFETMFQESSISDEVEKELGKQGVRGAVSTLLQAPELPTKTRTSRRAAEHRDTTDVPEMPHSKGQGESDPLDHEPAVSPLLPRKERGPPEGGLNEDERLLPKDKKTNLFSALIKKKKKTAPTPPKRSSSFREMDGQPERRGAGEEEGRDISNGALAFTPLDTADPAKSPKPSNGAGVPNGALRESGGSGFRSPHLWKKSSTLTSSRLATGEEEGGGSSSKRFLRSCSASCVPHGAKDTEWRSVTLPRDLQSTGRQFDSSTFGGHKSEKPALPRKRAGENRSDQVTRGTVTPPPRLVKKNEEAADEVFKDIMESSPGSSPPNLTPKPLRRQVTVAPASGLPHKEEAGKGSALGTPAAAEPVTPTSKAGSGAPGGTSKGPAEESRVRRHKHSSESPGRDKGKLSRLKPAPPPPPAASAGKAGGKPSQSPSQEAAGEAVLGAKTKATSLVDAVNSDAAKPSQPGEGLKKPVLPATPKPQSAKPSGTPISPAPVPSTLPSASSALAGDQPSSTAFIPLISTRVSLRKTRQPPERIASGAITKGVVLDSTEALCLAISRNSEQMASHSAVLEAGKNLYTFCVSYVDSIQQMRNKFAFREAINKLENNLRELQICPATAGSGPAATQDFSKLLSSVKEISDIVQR
Serine/threonine-protein kinase PAK 5, sequence (Q9P286 whole entry): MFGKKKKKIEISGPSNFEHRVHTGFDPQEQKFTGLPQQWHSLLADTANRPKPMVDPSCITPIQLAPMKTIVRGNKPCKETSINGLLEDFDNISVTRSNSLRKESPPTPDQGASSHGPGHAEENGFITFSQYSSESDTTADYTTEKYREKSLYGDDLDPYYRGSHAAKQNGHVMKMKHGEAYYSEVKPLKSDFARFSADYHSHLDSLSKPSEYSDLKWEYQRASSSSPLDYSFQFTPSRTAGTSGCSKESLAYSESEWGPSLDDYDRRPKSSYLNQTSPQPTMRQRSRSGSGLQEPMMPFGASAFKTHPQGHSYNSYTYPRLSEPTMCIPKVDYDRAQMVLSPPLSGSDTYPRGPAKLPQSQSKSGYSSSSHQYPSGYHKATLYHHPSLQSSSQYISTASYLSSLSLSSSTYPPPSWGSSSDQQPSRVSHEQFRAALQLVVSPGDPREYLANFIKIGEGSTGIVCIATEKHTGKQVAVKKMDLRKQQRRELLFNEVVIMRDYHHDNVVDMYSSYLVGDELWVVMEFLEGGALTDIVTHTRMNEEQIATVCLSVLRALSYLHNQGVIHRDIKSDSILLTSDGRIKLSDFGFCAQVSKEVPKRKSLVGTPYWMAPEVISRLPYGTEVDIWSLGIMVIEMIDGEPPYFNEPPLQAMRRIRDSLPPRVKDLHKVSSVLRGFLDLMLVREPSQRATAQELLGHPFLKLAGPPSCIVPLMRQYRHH

Broadly, the IC50 is the point on the concentration scale where inhibition reaches its midpoint. High values mean lower potency, low ones higher potency. With `Cc1ccc(NC(=O)c2cccc(C(F)(F)F)c2)cc1-c1ccc2nc(Nc3ccc(OCCN)cc3)ncc2c1` [Kinase inhibitor, 5], the IC50 in [1] is below 10 nM; in [2] it was above 10000 nM; in experiment [3], above 10000 nM; in experiment [4] it was below 2 nM; in [5], below 10 nM; in [6] it was above 10000 nM. Further, the IC50 in [7] was above 10000 nM; in experiment [8], below 2 nM; in experiment [9] it was 8.4 nM; in experiment [10] it was below 0.5 nM; in experiment [11], below 2 nM.

Source of the values: BindingDB's records for doi:10.1021/cb300623a (University of Washington, 2013).
